Results taken from article PMC9820559, “Investigation of the Fuzzy Complex between RSV Nucleoprotein and Phosphoprotein to Optimize an Inhibition Assay by Fluorescence Polarization” (International Journal of Molecular Sciences, 2022).
Peptide text beside a SMILES is read from it. * marks the point of attachment. FITC = O=C1OC2(c3ccc(O)cc3Oc3cc(O)ccc32)c2ccc(NC(=S)*)cc21; X1 = Cc1cc(C)n2c1C=C1C=CC(CCC(=O)*)=[N+]1[B-]2(C#N)C#N

Molecular target: T1, RSV N-RNA complex (Human respiratory syncytial virus A, UniProt P03418)
T1 construct: Full-length N was produced by co-expression with the C-terminal domain of RSV P protein in E. coli BL21(DE3); made in house; host or cells: E. coli BL21(DE3), co-transformed with pET-N and pGEX-P(161–241)
Experiment: biochemical
Assay type: binding
Conditions: for FP values compared to fluorescein at the same N-RNA concentrations: 200 nM probe, also bound to N-RNA
Experimental: We carried out FP measurements using the fluorescent F11 peptide and N-RNA complex. […] No salt was added to promote high affinity.
We first measured binding of Fn peptides (200 nM) to N-RNA in Tris buffer by FP (Figure 5A,B). […] We fitted the data with ΔFPmax and Kd as parameters.
We therefore measured fluorescein FP in the presence of N-RNA. […] To test if fluorescein binds to the P-binding site on the N-RNA, we carried out a competition experiment with M76 (Figure 6C).
We first performed FP measurements in salt-free Tris pH 8 buffer (Figure 8A). We measured binding curves using 200 nM of fluorescent peptides.
Fluorescence polarization measurements were carried out on a Paradigm Detection Platform (Beckman Coulter, Brea, CA, USA) operating with a microplate reader, a fluorescein detection cartridge (excitation range 485/20 nm, emission range 535/25 nm for both parallel and perpendicular components) and the SpectraMax Pro 6.1 software (Molecular Devices, San Jose, CA, USA). Samples were placed in polystyrene black flat bottom 96-well microplates (Cellstar, Greiner bio-one, Frickenhausen, Germany) with 20 µL final volume in each well. If not stated otherwise, the final concentration of fluorescent ligands was 200 nM. The buffer was either 20 mM MES pH 6.5, salt-free or with 250 mM NaCl, or 20 mM Tris pH 8.0 salt-free or with 100 mM NaCl, supplemented with 0.01% Brij-35. Mixing was done using the corresponding plate reader option. The temperature was set to 20 °C. Data were recorded in top reading mode. Measurements were done in triplicate and after an incubation time of 30 min, if not indicated otherwise. Fluorescence polarization (FP) in mFP units was determined from the parallel (I∥) and perpendicular (I⊥) components of the emitted light according to Equation (4). A grating factor G of 1.2 was determined using 1 nM fluorescein in 1 mM NaOH and assuming a theoretical FP of 27 mFP [48]. Background signal was measured from wells containing only buffer, and the mean value was subtracted from each I∥ and I⊥ component. (4) FP (mP)=1000×(I∥−G∗I⊥)/(I∥+G×I⊥)
We assumed that the measured fluorescence polarization FP is a linear combination of the FP of the fluorescent probe in the absence of N protein (FPmin) and the FP of N-bound fluorescent probe (FPmax), weighted by the molar fraction. The molar fraction x = [P]bound/[P]0 can then be expressed as a ratio of FP differences (Equation (8)). (8) x=(FP−FPmin)/(FPmax−FPmin)=∆FP/∆FPmax
To determine the Kd value of a complex between a fluorescent probe and N protein, a series of samples with constant probe concentration and varying N concentration was measured. FP binding curves were fitted with a single binding site model and a 1:1 stoichiometry.

[1] = apparent Kd, fluorescent molecules 200 nM, Tris pH 8 without salt, calculated assuming FPmax = 500 mFP
[2] = Kd, BCNn peptides 200 nM, Tris pH 8.0, no salt, single site model
[3] = Kd, Fn peptides 200 nM, Tris pH 8.0 without salt, single site binding model
[4] = Kd, Fn peptides 200 nM, Tris pH 8.0 without salt, single site model combined with linear contribution (*)

COC(=O)c1ccccc1-c1c2ccc(=O)cc-2oc2cc(O)ccc12 [Fluorescein methyl ester 2, fluorescein methyl ester] showed a Kd [1] of 200000 ± 8000 nM.
Cc1cc(C)n2c1C=C1C=CC(CCC(=O)N[C@@H](CC(=O)O)C(=O)N[C@@H](CC(C)C)C(=O)N[C@@H](CCC(=O)O)C(=O)N[C@@H](CC(C)C)C(=O)N[C@@H](CCC(=O)O)C(=O)N[C@@H](CC(=O)O)C(=O)N[C@@H](Cc3ccccc3)C(=O)O)=[N+]1[B-]2(C#N)C#N [BCN7E, BCN-DLELEDF-OH] (X1-DLELEDF-OH) was tested, and the Kd [2] was 2200 ± 200 nM.
CC(C)C[C@H](NC(=O)[C@H](CCC(=O)O)NC(=O)[C@H](CC(C)C)NC(=O)[C@H](CC(=O)O)NC(=O)[C@H](CC(N)=O)NC(=O)[C@H](CC(=O)O)NC(=S)Nc1ccc2c(c1)C(=O)OC21c2ccc(O)cc2Oc2cc(O)ccc21)C(=O)N[C@@H](CCC(=O)O)C(=O)N[C@@H](CC(=O)O)C(=O)N[C@@H](Cc1ccccc1)C(=O)O [F9E, ϕ-DNDLE237LEDF-OH] ({FITC}-DNDLELEDF-OH) was tested, and the Kd [3] was 2200 ± 300 nM.
In the case of CCOC(=O)c1ccccc1-c1c2ccc(=O)cc-2oc2cc(O)ccc12 [Fluorescein ethyl ester 3, fluorescein ethyl ester], the Kd [1] is reported as 250000 ± 27000 nM.
For Cc1cc(C)n2c1C=C1C=CC(CCC(=O)O)=[N+]1[B-]2(C#N)C#N [dicyano BODIPY FL 5, 3-(5,5-dicyano-7,9-dimethyl-5H-4λ^4,5λ^4-dipyrrolo[1,2-c:2′,1′-f][1,3,2]diazaborinin-3-yl)propanoic acid], the “FP values compared to fluorescein at the same N-RNA concentrations” value (Tris pH 8 without salt) was “markedly lower”.
Molecule CC(C)C[C@H](NC(=O)[C@H](CCC(=O)O)NC(=O)[C@H](CC(C)C)NC(=O)[C@H](CC(=O)O)NC(=O)[C@H](CC(N)=O)NC(=O)[C@H](CC(=O)O)NC(=O)[C@H](CCC(=O)O)NC(=O)[C@H](CC(=O)O)NC(=S)Nc1ccc2c(c1)C(=O)OC21c2ccc(O)cc2Oc2cc(O)ccc21)C(=O)N[C@@H](CCC(=O)O)C(=O)N[C@@H](CC(=O)O)C(=O)N[C@@H](Cc1ccccc1)C(=O)O [F11EE, ϕ-DE232DNDLE237LEDF-OH] ({FITC}-DEDNDLELEDF-OH) has a ΔFPmax (Fn peptides 200 nM, Tris pH 8.0 without salt, single site binding model) of 114 ± 6 mFP, a ΔFPmax (Fn peptides 200 nM, Tris pH 8.0 without salt, single site model combined with linear contribution (*)) of 93 ±13 mFP and a Kd [4] of 150 nM. The “increase of affinity relative to F11 by phosphomimetic substitutions” value (Tris pH 8.0 without salt) was 20 fold.
In the case of Cc1cc(C)n2c1C=C1C=CC(CCC(=O)N[C@@H](CCC(=O)O)C(=O)N[C@@H](CC(=O)O)C(=O)N[C@@H](CC(N)=O)C(=O)N[C@@H](CC(=O)O)C(=O)N[C@@H](CC(C)C)C(=O)N[C@@H](CCC(=O)O)C(=O)N[C@@H](CC(C)C)C(=O)N[C@@H](CCC(=O)O)C(=O)N[C@@H](CC(=O)O)C(=O)N[C@@H](Cc3ccccc3)C(=O)O)=[N+]1[B-]2(C#N)C#N [BCN10EE] (X1-EDNDLELEDF-OH), the Kd [2] is reported as 160 ± 30 nM.
In the case of Cc1cc(C)n2c1C=C1C=CC(CCC(=O)N[C@@H](CC(C)C)C(=O)N[C@@H](CCC(=O)O)C(=O)N[C@@H](CC(C)C)C(=O)N[C@@H](CCC(=O)O)C(=O)N[C@@H](CC(=O)O)C(=O)N[C@@H](Cc3ccccc3)C(=O)O)=[N+]1[B-]2(C#N)C#N [BCN6E, BCN-LELEDF-OH] (X1-LELEDF-OH), the Kd [2] is reported as 2300 ± 200 nM and the Kd (Kd, BCNn peptides 200 nM, Tris pH 8.0, with salt (100 mM NaCl), (*) saturation not reached) is reported as 12600 ± 1600 nM.
In the case of Cc1cc(C)n2c1C=C1C=CC(CCC(=O)N[C@@H](CC(=O)O)C(=O)N[C@@H](CO)C(=O)N[C@@H](CC(=O)O)C(=O)N[C@@H](CC(N)=O)C(=O)N[C@@H](CC(=O)O)C(=O)N[C@@H](CC(C)C)C(=O)N[C@@H](CCC(=O)O)C(=O)N[C@@H](CC(C)C)C(=O)N[C@@H](CCC(=O)O)C(=O)N[C@@H](CC(=O)O)C(=O)N[C@@H](Cc3ccccc3)C(=O)O)=[N+]1[B-]2(C#N)C#N [BCN11SE] (X1-DSDNDLELEDF-OH), the Kd [2] is reported as 800 nM.
In the case of CC(C)C[C@H](NC(=O)[C@H](CCC(=O)O)NC(=O)[C@H](CC(C)C)NC(=O)[C@H](CC(=O)O)NC(=S)Nc1ccc2c(c1)C(=O)OC21c2ccc(O)cc2Oc2cc(O)ccc21)C(=O)N[C@@H](CCC(=O)O)C(=O)N[C@@H](CC(=O)O)C(=O)N[C@@H](Cc1ccccc1)C(=O)O [F7E, ϕ-DLE237LEDF-OH] ({FITC}-DLELEDF-OH), the Kd [3] is reported as 2500 ± 300 nM.
O=C(O)c1ccccc1-c1c2ccc(=O)cc-2oc2cc(O)ccc12 [Fluorescein 1, Fluorescein] showed a Kd [1] of 91000 ± 5000 nM.
For CC(C)C[C@H](NC(=S)Nc1ccc2c(c1)C(=O)OC21c2ccc(O)cc2Oc2cc(O)ccc21)C(=O)N[C@@H](CCC(=O)O)C(=O)N[C@@H](CC(=O)O)C(=O)N[C@@H](Cc1ccccc1)C(=O)O [F4, ϕ-LEDF-OH] ({FITC}-LEDF-OH), the Kd [3] was 35000 ± 4000 nM.
Work on O=C(O)CC[C@H](NC(=S)Nc1ccc2c(c1)C(=O)OC21c2ccc(O)cc2Oc2cc(O)ccc21)C(=O)N[C@@H](CC(=O)O)C(=O)N[C@@H](Cc1ccccc1)C(=O)O [F3, ϕ-EDF-OH] ({FITC}-Glu-Asp-Phe-OH) yielded a Kd [3] of 62000 ± 19000 nM.
Work on CC(C)C[C@H](NC(=O)[C@H](CCC(=O)O)NC(=O)[C@H](CC(C)C)NC(=O)[C@H](CC(=O)O)NC(=O)[C@H](CC(N)=O)NC(=O)[C@H](CC(=O)O)NC(=O)[C@H](CO)NC(=O)[C@H](CC(=O)O)NC(=S)Nc1ccc2c(c1)C(=O)OC21c2ccc(O)cc2Oc2cc(O)ccc21)C(=O)N[C@@H](CCC(=O)O)C(=O)N[C@@H](CC(=O)O)C(=O)N[C@@H](Cc1ccccc1)C(=O)O [F11SE, ϕ-DS232DNDLE237LEDF-OH] ({FITC}-DSDNDLELEDF-OH) yielded a Kd [3] of less than 1000 nM and a Kd [4] of 620 nM.
In the case of Cc1cc(C)n2c1C=C1C=CC(CCC(=O)O)=[N+]1[B-]2(F)F [4,4′ difluoro BODIPY FL 4, 4,4′ difluoro BODIPY FL], the “FP values compared to fluorescein at the same N-RNA concentrations” value (Tris pH 8 without salt) is reported as “markedly lower” and the Kd [1] is reported as 870000 ± 140000 nM.
For Cc1cc(C)n2c1C=C1C=CC(CCC(=O)N[C@@H](CCC(=O)O)C(=O)N[C@@H](CC(C)C)C(=O)N[C@@H](CCC(=O)O)C(=O)N[C@@H](CC(=O)O)C(=O)N[C@@H](Cc3ccccc3)C(=O)O)=[N+]1[B-]2(C#N)C#N [BCN5E, BCN-ELEDF-OH] (X1-ELEDF-OH), the Kd [2] was 9800 ± 900 nM.
